Patent US20100035823A1, “LIGANDS OF SH3 DOMAINS” (ALBERT EINSTEIN COLLEGE OF MEDICINE OF YESHIVA UNIVERSITY, priority 2005, published 2010)
Read-outs that look alike come from different tables or passages of the source. Where a SMILES comes first, the peptide text is derived from it. [ ]: non-standard residue; d: D form. The star is where a group is joined. FITC = O=C1OC2(c3ccc(O)cc3Oc3cc(O)ccc32)c2ccc(NC(=S)*)cc21; Benzoyl(2,3-diOH) = O=C(c1cccc(O)c1O)*; Nicotinoyl(2-OH) = O=C(c1cccnc1O)*; Nspe = C[C@H](NCC(=O)O)c1ccccc1; X1 = O=C([C@H](O)c1ccccc1)*; Dap = NC[C@H](N)C(=O)O; Ahx = NCCCCCC(=O)O

Columns and labels:
Type in all cases: binding
Lck SH3 domain = target: T1, Lck SH3 domain (Homo sapiens, UniProt P06239); experiment: Determination of Kd values by equilibrium dialysis (fluorescence), Lck SH3 domain; details: read-out: Dissociation constant (KD), Lck
T1 construct: The GST-SH3 fusion proteins, Fyn (85-139) and Lck (54-120); GST; purchased Santa Cruz Biotechnology
T1 sequence (P06239 54-120): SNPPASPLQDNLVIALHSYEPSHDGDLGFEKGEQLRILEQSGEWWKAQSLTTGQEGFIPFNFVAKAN

Yes SH3 domain = Yes SH3 domain (Homo sapiens, UniProt P07947); experiment: Determination of Kd values by equilibrium dialysis (fluorescence), Yes SH3 domain; details: read-out: Dissociation constant (KD), Yes
Sequence of Yes SH3 domain (P07947 91-152 limits assumed): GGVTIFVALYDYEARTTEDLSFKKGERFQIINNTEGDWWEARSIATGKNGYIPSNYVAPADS

Src SH3 domain = Src SH3 domain (Homo sapiens, UniProt P12931); experiment: Determination of Kd values by equilibrium dialysis (fluorescence), Src SH3 domain; details: read-out: Dissociation constant (KD), Src
Hck SH3 domain = target: T2, Hck SH3 domain (Homo sapiens, UniProt P08631); experiment: Determination of Kd values by equilibrium dialysis (fluorescence), Hck SH3 domain; details: read-out: Dissociation constant (KD), Hck
T2 construct: particularly with respect to the SH3 domains from Lck and Hck
T2 sequence (P08631 78-138 limits assumed): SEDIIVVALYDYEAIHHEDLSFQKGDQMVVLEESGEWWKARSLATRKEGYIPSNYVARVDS

[1] = target: T3, Fyn SH3 domain (Fyn SH3-GST fusion protein) (Homo sapiens, UniProt P06241); experiment: Determination of Kd values by equilibrium dialysis (fluorescence), Fyn SH3 domain; details: for Kd: Fyn SH3 domain; for Selectivity among Src family SH3 domains (in words): Fyn versus other Src kinase family SH3 domains; for Enhancement in Fyn SH3 affinity relative to parent peptide 9: ratio of KD values versus acetylated derivative 9
T3 construct: The GST-SH3 fusion proteins, Fyn (85-139) and Lck (54-120); purchased Santa Cruz Biotechnology
T3 sequence (P06241 85-139): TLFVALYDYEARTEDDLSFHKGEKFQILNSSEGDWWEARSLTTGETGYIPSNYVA
Description: Determination of Kd Values. […] Therefore, the KD values for the SH3 complexes of these species were determined via equilibrium dialysis. All samples were prepared in buffer containing TBS and 1 mM DTT at pH 7.5. Slide-A-Lyzer dialysis slide cassette (0.1-0.5 mL capacity) was employed and contained 30 nM or 500 nM Fyn SH3-GST fusion proteins. The cassettes (400 μL final volume) were placed in a beaker containing a volume of buffer solution (TBS and 1 mM DTT at pH 7.5) that was at least 400-fold greater than that of the sample volume in the dialysis cassette. As a consequence, concentrations of non-SH3-bound peptide were held constant in the dialysis slide cassette over the course of the experiment. Equilibrium dialysis experiments were performed over a period of at least 16 hr and maintained at 4°C. Differences in the fluorescence between the solution in the slide cassette and that in the beaker were measured. The excitation wavelength employed for the peptides were 328 nm. Emission was monitored at 378 nm. The Kd values were calculated from the following equation for fluorescent peptides 8a, 11a, 14 and 7, where [E]t=total enzyme concentration; [E·L]=enzyme-peptide complex; [L]=free peptide concentration.
For non-fluorescent peptide 9, the following equation was used for the determination of Kd′:
Where Kd=the dissociation constant of competition fluorescent peptide, [L′]=total lion-fluorescent peptide concentration, [L]=total competitive fluorescent peptide concentration, [E]t=total SH3 domain concentration; [E·L]=enzyme-peptide (fluorescent competitive peptide) complex concentration.

[2] = target: T4, Fyn SH3-GST fusion protein (Homo sapiens, UniProt P06241); experiment: Competition ELISA against microwell-bound biotinylated peptoid 6; details: competition with biotinylated peptoid 6, read-out: IC50 (relative affinity) in ELISA assay
T4 construct: The GST-SH3 fusion proteins, Fyn (85-139) and Lck (54-120); purchased Santa Cruz Biotechnology
T4 sequence (P06241 85-139): as above
Description: We employed Arg-Ala-Leu-Pro-Pro-Leu-Pro as the starting point for Fyn SH3 ligand optimization, a sequence that is consistent with most known SH3 domain-binding elements. We initially introduced diversity elements on the N-terminus of this peptide to furnish Library I (FIG. 2). The 720 individual members of this library were subsequently assessed for SH3 binding potency via an ELISA-based screen. The latter was performed in parallel using streptavidin-coated 96 well plates. A biotinylated-peptide SH3-directed ligand was appended to the individual wells and a GST-SH3 domain fusion protein was subsequently introduced. Competition between members of the library and the microwell-bound biotinylated peptide ligand determined the extent to which the GST-SH3 protein was retained by the individual wells after washing. The latter was quantified using an anti-GST-peroxidase fusion construct. The assay is dependent upon a strong binding interaction between the GST-SH3 domain and the biotinylated peptide ligand associated with the streptavidin-coated well. […]
Screening of the Peptide/Nonpeptide Conjugate Library. […] 100 μL of 1M sulfuric acid solution was introduced to stop the peroxidase reaction and absorbance was measured at 450 nm with a plate reader. […]

[3] = equilibrium dialysis, 4°C, pH 7.5, read-out: Dissociation constant (KD), Fyn

Row | Kd (Lck SH3 domain) [nM] | Kd (Yes SH3 domain) [nM] | Kd (Src SH3 domain) [nM] | Kd (Hck SH3 domain) [nM] | Kd [1, 3] [nM] | Enhancement in Fyn SH3 affinity relative to parent peptide 9 [1] [fold] | Kd ([1]; values in nM, read-out: KD for the Fyn SH3 domain) [nM] | IC50 [2] [µM] | Selective affinity for Fyn versus SH3 domains from other Src kinase family members ([1]; Fyn versus Lck, Src, Yes, Hck SH3 domains) [fold] | Compound | Selectivity among Src family SH3 domains (in words) [1]
1 | 590 ± 80 | 380 ± 140 | 370 ± 50 | 620 ± 70 | 110 ± 30 | > 100 |  |  |  | CC(C)C[C@H](NC(=O)[C@@H]1CCCN1C(=O)[C@@H]1CCCN1C(=O)[C@H](CC(C)C)NC(=O)[C@H](C)NC(=O)[C@H](CCCNC(=N)N)NC(=O)c1cccnc1O)C(=O)N1CCC[C@H]1C(=O)N[C@@H](CNC(=O)c1cccc(O)c1O)C(N)=O [Ligand 11a] ({Nicotinoyl(2-OH)}-RALPPLP[Dap](Benzoyl(2,3-diOH))-NH2) | slight improvement in selectivity for the Fyn SH3 domain relative to Lck and Hck
2 |  |  |  |  |  |  | 230 ± 30 |  |  | CC(C)C[C@H](NC(=O)[C@@H]1CCCN1C(=O)[C@@H]1CCCN1C(=O)[C@H](C)NC(=O)[C@H](Cc1ccc(O)cc1)NC(=O)CCCCCNC(=O)CCCCCNC(=S)Nc1ccc2c(c1)C(=O)OC21c2ccc(O)cc2Oc2cc(O)ccc21)C(=O)N(CC(=O)N1CCC[C@H]1C(=O)N[C@@H](CCCNC(=N)N)C(=O)N[C@@H](CC(N)=O)C(=O)N[C@@H](CCCNC(=N)N)C(=O)N1CCC[C@H]1C(=O)N[C@@H](CCCNC(=N)N)C(=O)N[C@@H](C)C(N)=O)[C@@H](C)c1ccccc1 [Ligand 7] ({FITC-Ahx-Ahx}-YAPPL[Nspe]PRNRPRA-NH2) | little selectivity versus other members of the Src kinase family
3 | 5300 ± 400 | 2700 ± 300 | 2500 ± 200 | 5100 ± 700 | 1200 ± 200 | ~15 |  | 15 |  | CC(C)C[C@H](NC(=O)[C@@H]1CCCN1C(=O)[C@@H]1CCCN1C(=O)[C@H](CC(C)C)NC(=O)[C@H](C)NC(=O)[C@H](CCCNC(=N)N)NC(=O)c1cccnc1O)C(=O)N1CCC[C@H]1C(N)=O [Ligand 8a] ({Nicotinoyl(2-OH)}-RALPPLP-NH2) | some selectivity in favor of Fyn
4 | 270 ± 30 | 190 ± 20 | 230 ± 40 | 260 ± 30 | 25 ± 5 |  |  |  | 10 | CC(C)C[C@H](NC(=O)[C@@H]1CCCN1C(=O)[C@@H]1CCCN1C(=O)[C@H](CC(C)C)NC(=O)[C@H](CNC(=O)[C@H](O)c1ccccc1)NC(=O)[C@H](CCCNC(=N)N)NC(=O)c1cccnc1O)C(=O)N1CCC[C@H]1C(=O)N[C@@H](CNC(=O)c1cccc(O)c1O)C(N)=O [Ligand 14] ({Nicotinoyl(2-OH)}-R[Dap](X1)LPPLP[Dap](Benzoyl(2,3-diOH))-NH2) | 
